In patent US20250282831A1, “NOVEL PROTEIN AND NUCLEIC ACID SEQUENCES FOR COVID-19 VACCINES” (Dompe' Farmaceutici SPA, priority 2021, published 2025):

Key:
[1] = system: Osteoclasts from RAW264.7 macrophages; experiment: Estrogen-like activity: TRAP activity by ELISA in osteoclasts; type: cell-based, murine; conditions: RANKL-differentiated osteoclasts; 24 h; 1 nM Estradiol or 10 ng/ml spike proteins
[2] = system: THP-1; experiment: Proteome profile (cytokine array) of conditioned media from differentiated THP-1 cells; type: cell-based, Human
[3] = system: MCF-7 breast cancer cells; experiment: BrdU proliferation assay in MCF-7 breast cancer cell line; type: cell-based; conditions: 24 hours

SMILES | TRAP levels, Mean [1] [U/L] | effect on spike-induced IL-8 up-regulation (in words) [2] | effect on CHI3L1 up-regulation (in words) ([2]; co-treatment with spike and/or estradiol, 24 h) | effect on OPN upregulation (in words) ([2]; co-treatment with spike, 24 h) | cell proliferation, Mean ([3]; peptides 10 ug/ml, spike 10 ng/ml, raloxifene 2 μM) | effect on estradiol- and spike-induced proliferation (in words) ([3]; co-treatment with raloxifene 2 μM)
C[C@]12CC[C@@H]3c4ccc(O)cc4CC[C@H]3[C@@H]1CC[C@@H]2O [Estradiol] | 0.25 | – | – | – | – | –
O=C(c1ccc(OCCN2CCCCC2)cc1)c1c(-c2ccc(O)cc2)sc2cc(O)ccc12 [ral, Raloxifene] | – | effective in counteracting the effect of spike | able to counteract only the effects of spike alone | able to counteract the effects of spike alone | 109.5 percentage of control | counteracted
